Counter-ions that a name gives are not always drawn.
test: MIC of test compounds against various organisms; type: cell-based; conditions: not given

Row | SMILES | MIC [µg/mL]
1 | COc1ccc2nccc([C@@H](O)CN3CCC(NCc4cc5cccnc5n4CC(=O)O)CC3)c2c1 [Example 624, (R)-1-(6-Methoxy-quinolin-4-yl)-2-{4-[(1-carboxymethyl-1H-pyrrolo[2,3-b]pyridine-2-ylmethyl)-amino]-piperidin-1-yl}-ethanol trihydrochloride] | ≤ 32
2 | COc1ccc2nccc([C@@H](O)CN3CCC(NCc4cc5cccc(O)c5c(=O)[nH]4)CC3)c2c1 [Example 622, (R)-2-{4-[(8-Hydroxy-1-oxo-1,2-dihydro-isoquinolin-3-ylmethyl)-amino]-piperidin-1-yl}-1-(6-methoxyquinolin-4-yl)-ethanol trihydrochloride] | ≤ 0.125
3 | COc1ccc2nccc([C@@H](O)CN3CCC(N(CC(=O)O)Cc4cc5cccnc5n4CC(=O)O)CC3)c2c1 [Example 625, (R)-1-(6-Methoxy-quinolin-4-yl)-2-{4-[carboxymethyl-(1-carboxymethyl-1H-pyrrolo[2,3-b]pyridine-2-ylmethyl)-amino]-piperidin-1-yl}-ethanol dihydrochloride] | ≤ 32

same assay, conditions: against one or more of the above range of gram positive and gram negative bacteria; read-out: MIC

Row | MIC [µg/mL] | SMILES
4 | ≤ 32 | COc1cc(F)c2nccc(NC(=O)N3CCC(NCc4cnc5c(O)cccc5n4)CC3)c2c1F [Example 620, 4-[(5-Hydroxy-quinoxalin-2-ylmethyl)amino]-piperidine-1-carboxylic acid (5,8-difluoro-6-methoxy-quinolin-4-yl)-amide oxalate]
5 | ≤ 2 | COc1ccc2nccc([C@@H](O)CN3CCC(NCc4nc5cc(F)c(F)cc5[nH]4)CC3)c2c1.O=C(O)C(=O)O.O=C(O)C(=O)O [Example 14, (R)-2-{4-[(5,6-Difluoro-1H-benzimidazol-2-ylmethyl)-amino]-piperidin-1-yl}-1-(6-methoxyquinolin-4-yl)-ethanol, dioxalate]
6 | ≤ 2 | COc1ccc2nccc(NC(=O)N3CCC(NCc4nc5c(F)cc(F)cc5[nH]4)CC3)c2n1 [Example 403, 4-[(4,6-Difluoro-1H-benzimidazol-2-ylmethyl)-amino]-piperidine-1-carboxylic acid (6-methoxy-[1,5]naphthyridin-4-yl)-amide, oxalate]
7 | ≤ 32 | COc1ccc2nccc([C@@H](O)CN3CCC(NCc4cc5cc(Br)ccc5[nH]4)CC3)c2c1 [Example 9, (R)-2-{4-[(5-Bromo-1 H-indol-2-ylmethyl)amino]-piperidin-1-yl}-1-(6-methoxy-quinolin-4-yl)-ethanol, dioxalate]
8 | ≤ 2 | COc1ccc2nccc([C@@H](O)CN3CCC(NCc4cnc5scnc5c4)CC3)c2c1 [Example 623, (R)-1-(6-Methoxy-quinolin-4-yl)-2-{4-[(thiazolo[5,4-b]pyridin-6-ylmethyl)amino]-piperidin-1-yl}-ethanol dioxalate]
9 | ≤ 32 | COc1ccc2nc(CNC3CCN(C[C@H](O)c4ccnc5ccc(OC)cc45)CC3)sc2c1 [Example 11, (R)-2-{4-[(6-Methoxy-benzothiazol-2-ylmethyl)-amino]-piperidin-1-yl}-1-(6-methoxy-quinolin-4-yl)-ethanol, dioxalate]
10 | ≤ 2 | COc1ccc2nccc(NC(=O)N3CCC(NCc4cc5ccccc5[nH]4)CC3)c2c1 [Example 406, 4-[(1H-Indol-2-ylmethyl)-amino]-piperidine-1-carboxylic acid (6-methoxy-quinolin-4-yl)amide, oxalate]
